Assay results published in PubChem BioAssay AID256 (DTP/NCI, 2004).
Several values for one entry are separate records, joined by “and”; a condition that tells them apart may be missing. Equal entries are not always repeated. Inconclusive results and toxic doses are left out. How the source made its calls: active means survival T/C of 150% or more; inactive means T/C below 125% in these data.

Test system: CD2F1 mice, L1210 leukemia ip, survival T/C
Assay: NCI In Vivo Anticancer Drug Screen. Data for tumor model L1210 Leukemia (intraperitoneal) in CD2F1 (CDF1) mice
Conditions: higher = longer survival
Method in brief: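 Mice carrying a transplanted tumor received test compound or vehicle alone. The value is the measurement in the treated group divided by that in the vehicle-treated control group.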

[1] = endpoint: mean survival time, dose: 12.5 mg/kg/injection, schedule: Q01DX005 (ip), vehicle: distilled water + Tween-80
[2] = endpoint: mean survival time, dose: 25.0 mg/kg/injection, schedule: Q01DX005 (ip), vehicle: distilled water + Tween-80
[3] = endpoint: mean survival time, dose: 50.0 mg/kg/injection, schedule: Q01DX005 (ip), vehicle: distilled water + Tween-80
[4] = endpoint: mean survival time, dose: 100.0 mg/kg/injection, schedule: Q01DX005 (ip), vehicle: distilled water + Tween-80
[5] = endpoint: mean survival time, dose: 100.0 mg/kg/injection, schedule: Q01DX001 (ip), vehicle: saline with Tween-80
[6] = endpoint: mean survival time, dose: 200.0 mg/kg/injection, schedule: Q01DX001 (ip), vehicle: saline with Tween-80
[7] = endpoint: mean survival time, dose: 100.0 mg/kg/injection, schedule: Q04DX003 (ip), vehicle: saline with Tween-80
[8] = endpoint: mean survival time, dose: 200.0 mg/kg/injection, schedule: Q04DX003 (ip), vehicle: saline with Tween-80
[9] = endpoint: mean survival time, dose: 400.0 mg/kg/injection, schedule: Q04DX003 (ip), vehicle: saline with Tween-80
[10] = endpoint: mean survival time, dose: 50.0 mg/kg/injection, schedule: Q01DX009 (ip), vehicle: saline with Tween-80
[11] = endpoint: mean survival time, dose: 100.0 mg/kg/injection, schedule: Q01DX009 (ip), vehicle: saline with Tween-80
[12] = endpoint: mean survival time, dose: 200.0 mg/kg/injection, schedule: Q01DX009 (ip), vehicle: saline with Tween-80
[13] = endpoint: mean survival time, dose: 400.0 mg/kg/injection, schedule: Q01DX009 (ip), vehicle: saline with Tween-80

Measured: T/C

CCCCCCCCCCCC(=O)/C=C/Sc1n[nH]c(=O)[nH]c1=O
inactive: [1] 102 % of control | [2] 104 % of control | [3] 100 % of control | [4] 102 % of control

COc1ccccc1N=Nc1c(O)n(-c2ccc(Br)cc2)c(=S)n(-c2ccccc2)c1=O
inactive: [5] 93 % of control | [6] 93 % of control | endpoint: mean survival time, dose: 400.0 mg/kg/injection, schedule: Q01DX001 (ip), vehicle: saline with Tween-80 87 % of control

N#CCCSc1ccccc1
inactive: [7] 90 % of control | [8] 102 % of control | [9] 96 % of control

CCCCCCCCCCOc1ccc(OCCCCCCCCC)cc1
inactive: [5] 86 % of control | [6] 90 % of control

CCCCNC(=S)NNC(=O)Cn1cnc2c1c(=O)n(C)c(=O)n2C
inactive: [1] 101 % of control | [2] 101 % of control | [3] 97 % of control | [4] 97 % of control | endpoint: mean survival time, dose: 200.0 mg/kg/injection, schedule: Q01DX005 (ip), vehicle: distilled water + Tween-80 101 % of control

CC1(C)N=C(N)N=C(N)N1c1cccc(CCCCOc2ccccc2)c1
inactive: endpoint: mean survival time, dose: 6.25 mg/kg/injection, schedule: Q01DX009 (ip), vehicle: saline with Tween-80 101 % of control | endpoint: mean survival time, dose: 12.5 mg/kg/injection, schedule: Q01DX009 (ip), vehicle: saline with Tween-80 111 % of control | endpoint: mean survival time, dose: 25.0 mg/kg/injection, schedule: Q01DX009 (ip), vehicle: saline with Tween-80 108 % of control

O=C(Nc1ccccc1F)c1cccc(Cl)c1
inactive: endpoint: mean survival time, dose: 100.0 mg/kg/injection, schedule: Q01DX009 (ip), vehicle: saline + alcohol 94 % of control | endpoint: mean survival time, dose: 100.0 mg/kg/injection, schedule: Q04DX003 (ip), vehicle: saline + alcohol 95 % of control | endpoint: mean survival time, dose: 200.0 mg/kg/injection, schedule: Q01DX009 (ip), vehicle: saline + alcohol 94 % of control | endpoint: mean survival time, dose: 200.0 mg/kg/injection, schedule: Q04DX003 (ip), vehicle: saline + alcohol 95 % of control | endpoint: mean survival time, dose: 400.0 mg/kg/injection, schedule: Q01DX009 (ip), vehicle: saline + alcohol 94 % of control | endpoint: mean survival time, dose: 400.0 mg/kg/injection, schedule: Q04DX003 (ip), vehicle: saline + alcohol 94 % of control

CC(C)(C)CC(C)(C)c1ccc(OCCOc2ccc(S(=O)(=O)O)cc2[N+](=O)[O-])cc1
inactive: endpoint: mean survival time, dose: 100.0 mg/kg/injection, schedule: Q01DX001 (ip), vehicle: saline 102 % of control | endpoint: mean survival time, dose: 200.0 mg/kg/injection, schedule: Q01DX001 (ip), vehicle: saline 102 % of control | endpoint: mean survival time, dose: 400.0 mg/kg/injection, schedule: Q01DX001 (ip), vehicle: saline 98 % of control

c1ccc(CCN2CCCCC2)nc1
inactive: endpoint: mean survival time, dose: 3.13 mg/kg/injection, schedule: Q04DX003 (ip), vehicle: saline with Tween-80 93 % of control | endpoint: mean survival time, dose: 6.25 mg/kg/injection, schedule: Q04DX003 (ip), vehicle: saline with Tween-80 93 % of control

O=c1ccc2nc3ccccc3sc-2c1
inactive: endpoint: mean survival time, dose: 25.0 mg/kg/injection, schedule: Q01DX009 (ip), vehicle: Klucel (hydroxypropylcellulose) (HPC) 106 % of control | endpoint: mean survival time, dose: 50.0 mg/kg/injection, schedule: Q01DX009 (ip), vehicle: Klucel (hydroxypropylcellulose) (HPC) 103 % of control | [10] 97 % of control | endpoint: mean survival time, dose: 100.0 mg/kg/injection, schedule: Q01DX009 (ip), vehicle: Klucel (hydroxypropylcellulose) (HPC) 108 % of control | endpoint: mean survival time, dose: 200.0 mg/kg/injection, schedule: Q01DX009 (ip), vehicle: Klucel (hydroxypropylcellulose) (HPC) 98 % of control

CC(=O)Nc1nc(Br)c2ccccc2c1-c1ccc(N)cc1
inactive: endpoint: mean survival time, dose: 50.0 mg/kg/injection, schedule: Q04DX003 (ip), vehicle: other 97 % of control | endpoint: mean survival time, dose: 100.0 mg/kg/injection, schedule: Q04DX003 (ip), vehicle: other 94 % of control | endpoint: mean survival time, dose: 200.0 mg/kg/injection, schedule: Q04DX003 (ip), vehicle: other 94 % of control | endpoint: mean survival time, dose: 400.0 mg/kg/injection, schedule: Q04DX003 (ip), vehicle: other 102 % of control

O=C1c2cc([N+](=O)[O-])ccc2-c2cc(Br)ccc21
inactive: [7] 99 % of control | [8] 91 % of control

O=C1c2ccccc2C2c3[nH]c4ccccc4c3CCN12 (stereo not drawn)
inactive: endpoint: mean survival time, dose: 100.0 mg/kg/injection, schedule: Q01DX009 (ip), vehicle: saline sonified 97 % of control | [7] 87 % of control | endpoint: mean survival time, dose: 200.0 mg/kg/injection, schedule: Q01DX009 (ip), vehicle: saline sonified 96 % of control | [8] 95 % of control | endpoint: mean survival time, dose: 400.0 mg/kg/injection, schedule: Q01DX009 (ip), vehicle: saline sonified 97 % of control | [9] 93 % of control

NNC(=O)CCc1ccccc1Br
inactive: [10] 92 % of control and 102 % of control | [11] 102 % of control and 103 % of control | [7] 100 % of control | [12] 93 % of control | [8] 97 % of control

CCc1ccc(C#N)cc1O
inactive: [11] 102 % of control | [7] 96 % of control | [12] 98 % of control | [8] 100 % of control | [13] 96 % of control | [9] 100 % of control

O=C1OC(=O)C2C3C=CC(C12)C1C2C(=O)OC(=O)C2C31 (stereo not drawn)
inactive: [7] 91 % of control and 101 % of control | [8] 94 % of control and 97 % of control | [9] 123 % of control and 94 % of control | endpoint: mean survival time, dose: 600.0 mg/kg/injection, schedule: Q04DX003 (ip), vehicle: saline with Tween-80 110 % of control

CCOC(=O)C(CCC#N)(CCC#N)C(=O)O
inactive: endpoint: mean survival time, dose: 100.0 mg/kg/injection, schedule: Q04DX002 (ip), vehicle: saline 98 % of control | endpoint: mean survival time, dose: 200.0 mg/kg/injection, schedule: Q04DX002 (ip), vehicle: saline 111 % of control | endpoint: mean survival time, dose: 400.0 mg/kg/injection, schedule: Q04DX002 (ip), vehicle: saline 117 % of control

O=C(O)c1c(Cl)c(Cl)c(C(=O)O)c(Cl)c1Cl
inactive: [7] 96 % of control | [8] 96 % of control | [9] 94 % of control

CC(CNC(=O)C12CC3CC(CC(C3)C1)C2)NC(=O)C12CC3CC(CC(C3)C1)C2 (stereo not drawn)
inactive: endpoint: median survival time, dose: 12.5 mg/kg/injection, schedule: Q01DX005 (ip), vehicle: DMSO 101 % of control | endpoint: median survival time, dose: 25.0 mg/kg/injection, schedule: Q01DX005 (ip), vehicle: DMSO 104 % of control | endpoint: median survival time, dose: 50.0 mg/kg/injection, schedule: Q01DX005 (ip), vehicle: DMSO 101 % of control | endpoint: median survival time, dose: 100.0 mg/kg/injection, schedule: Q01DX005 (ip), vehicle: DMSO 98 % of control | endpoint: median survival time, dose: 200.0 mg/kg/injection, schedule: Q01DX005 (ip), vehicle: DMSO 101 % of control

O=P(NCCCl)(NCCCl)Oc1ccccc1
inactive: endpoint: mean survival time, dose: 62.5 mg/kg/injection, schedule: Q01DX001 (ip), vehicle: water 103 % of control | endpoint: mean survival time, dose: 125.0 mg/kg/injection, schedule: Q01DX001 (ip), vehicle: water 97 % of control | endpoint: mean survival time, dose: 250.0 mg/kg/injection, schedule: Q01DX001 (ip), vehicle: water 98 % of control | endpoint: mean survival time, dose: 500.0 mg/kg/injection, schedule: Q01DX001 (ip), vehicle: water 98 % of control

CC1(C)C=CC=C(C(=O)O)C=C1
inactive: [11] 100 % of control | [7] 98 % of control | [12] 92 % of control | [8] 98 % of control | [13] 89 % of control | [9] 94 % of control

CC(=O)[C@H]1CC[C@H]2[C@@H]3CC[C@@H]4CC(=O)CC[C@]4(C)[C@H]3CC[C@]12C
inactive: [7] 96 % of control | [8] 96 % of control | [9] 96 % of control

O=C(O)c1ccc(Cl)cc1Nc1ccc(Cl)cc1
inactive: endpoint: mean survival time, dose: 12.5 mg/kg/injection, schedule: Q04DX003 (ip), vehicle: saline with Tween-80 97 % of control | endpoint: mean survival time, dose: 25.0 mg/kg/injection, schedule: Q04DX003 (ip), vehicle: saline with Tween-80 100 % of control | endpoint: mean survival time, dose: 50.0 mg/kg/injection, schedule: Q04DX003 (ip), vehicle: saline with Tween-80 107 % of control | [7] 98 % of control

CC(=O)OCC(COC(C)=O)(COC(C)=O)COC(C)=O
inactive: [11] 97 % of control | [7] 100 % of control | [12] 97 % of control | [8] 96 % of control | [13] 98 % of control | [9] 93 % of control

C[CH2][Sn]1([CH2]C)[O]C2C(CO)OC(n3ccc4c(N)ncnc43)C2[O]1 (stereo not drawn)
inactive: endpoint: mean survival time, dose: 0.78 mg/kg/injection, schedule: Q01DX005 (ip), vehicle: other 110 % of control | endpoint: mean survival time, dose: 1.56 mg/kg/injection, schedule: Q01DX005 (ip), vehicle: other 104 % of control | endpoint: mean survival time, dose: 3.13 mg/kg/injection, schedule: Q01DX005 (ip), vehicle: other 117 % of control

O=C(O)C1(c2ccccc2)OCCO1
inactive: endpoint: mean survival time, dose: 100.0 mg/kg/injection, schedule: Q04DX003 (ip), vehicle: saline 103 % of control | endpoint: mean survival time, dose: 200.0 mg/kg/injection, schedule: Q04DX003 (ip), vehicle: saline 103 % of control | endpoint: mean survival time, dose: 400.0 mg/kg/injection, schedule: Q04DX003 (ip), vehicle: saline 97 % of control
